Results from US20220291236A1, “DETECTION OF DYSTROGLYCAN” (ML Bio Solutions Inc., priority 2021, published 2022).

Test system: alpha-dystroglycan (αDG)
Test: Multiplexed Western Blot of total αDG and glycosylated αDG in muscle lysates of P448L mutant FKRP mice untreated or treated with 5% Ribitol
Type: in vivo, mouse
Conditions: 5% Ribitol treated P488L mice compared to untreated P488L mice, heart muscle and TA lysates, region ~50-250 kDa
Protocol: Tissue samples were processed using a TissueLyzer IITM (Qiagen®). Approximately 250 milligrams (mg) of tissue was placed in a 2 mL microtube with a steel bead and 1 mL of Radioimmunoprecipitation assay buffer (RIPA) buffer supplemented with protease and phosphatase inhibitors. The microtubes were subjected to three cycles of disruption (2 minutes at 25 Hertz (Hz)) in the TissueLyzer IITM. Lysates were clarified by centrifugation and the supernatant was transferred to fresh tubes and lysate concentration was determined using a BCA assay (Pierce®). Polyacrylamide gel electrophoresis was carried out on 4-20% […] gels. […] The membrane was visualized on an Odyssey CLxTM imager (LiCorTM) and intensities of the 700 and 800 nm channels were recorded. […] Signal intensities were normalized to total protein and the ratio of 700 nm normalized signal/800 nm normalized signal was determined. Linear fits were assessed where applicable using the linear regression function of PrismTM. Statistical significance was determined using an unpaired t-test using PrismTM. 1) StainFree gel image is quantitated using ImageLabTM software to analyze the image from the ChemiDocTM Imaging System. […] Signal intensities were normalized to total protein and the ratio of 700 nm normalized signal/800 nm normalized signal was determined. Linear fits were assessed were applicable using a linear regression function. […]

OC[C@@H](O)[C@@H](O)[C@@H](O)CO [Ribitol, (2R,3s,4S)-Pentane-1,2,3,4,5-pentol]
αDG expression (total αDG signal) (normalized to C57 untreated control (FIG. 6B)): increased | ratio of glycosylated αDG to total αDG (normalized to C57 untreated control (FIG. 6C)): increased
